Measured values taken from PubChem BioAssay AID248 (DTP/NCI, 2004).
Several values for one entry are separate records, joined by “and”; a condition that tells them apart may be missing. Equal entries are not always repeated. Inconclusive results and toxic doses are left out. Rule as the data show it: active = T/C of 150% or more; inactive = T/C below 125%.

Tested on: L1210 leukemia ip in BDF1 mice, survival T/C
Test: NCI In Vivo Anticancer Drug Screen. Data for tumor model L1210 Leukemia (intraperitoneal) in B6D2F1 (BDF1) mice
Conditions: endpoint: mean survival time, higher = longer survival
Outline: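 Value reflects the ratio of survival in compound-treated mice to survival in vehicle-treated controls, with both groups carrying the same transplanted tumor.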

[1] = dose: 100.0 mg/kg/injection, schedule: Q01DX009 (ip), vehicle: Klucel (hydroxypropylcellulose) (HPC)
[2] = dose: 200.0 mg/kg/injection, schedule: Q01DX009 (ip), vehicle: Klucel (hydroxypropylcellulose) (HPC)
[3] = dose: 50.0 mg/kg/injection, schedule: Q04DX002 (ip), vehicle: saline with Tween-80
[4] = dose: 100.0 mg/kg/injection, schedule: Q01DX009 (ip), vehicle: saline with Tween-80
[5] = dose: 100.0 mg/kg/injection, schedule: Q04DX003 (ip), vehicle: saline with Tween-80
[6] = dose: 200.0 mg/kg/injection, schedule: Q01DX009 (ip), vehicle: saline with Tween-80
[7] = dose: 200.0 mg/kg/injection, schedule: Q04DX003 (ip), vehicle: saline with Tween-80
[8] = dose: 400.0 mg/kg/injection, schedule: Q01DX009 (ip), vehicle: saline with Tween-80
[9] = dose: 400.0 mg/kg/injection, schedule: Q04DX003 (ip), vehicle: saline with Tween-80
[10] = dose: 100.0 mg/kg/injection, schedule: Q04DX002 (ip), vehicle: Klucel (hydroxypropylcellulose) (HPC)
[11] = dose: 200.0 mg/kg/injection, schedule: Q04DX002 (ip), vehicle: Klucel (hydroxypropylcellulose) (HPC)
[12] = dose: 400.0 mg/kg/injection, schedule: Q04DX002 (ip), vehicle: Klucel (hydroxypropylcellulose) (HPC)

Measured: T/C

CC1CCCC[N-]1.CC1CCCC[N-]1.[Cl][Pt+2][Cl] (stereo unspecified)
inactive: [1] 97 % of control | dose: 100.0 mg/kg/injection, schedule: Q04DX003 (ip), vehicle: Klucel (hydroxypropylcellulose) (HPC) 98 % of control | [2] 102 % of control | dose: 200.0 mg/kg/injection, schedule: Q04DX003 (ip), vehicle: Klucel (hydroxypropylcellulose) (HPC) 96 % of control | dose: 400.0 mg/kg/injection, schedule: Q04DX003 (ip), vehicle: Klucel (hydroxypropylcellulose) (HPC) 102 % of control

CN(C)C(=O)Sc1ccc(S(=O)(=O)F)cc1[N+](=O)[O-]
inactive: [1] 110 % of control | [2] 102 % of control

CC(=O)Nc1ccc(NC(=S)NC(=O)COc2ccccc2)cc1
inactive: [3] 102 % of control and 105 % of control | dose: 100.0 mg/kg/injection, schedule: Q01DX001 (ip), vehicle: saline with Tween-80 107 % of control | [4] 102 % of control and 91 % of control | [5] 97 % of control | dose: 200.0 mg/kg/injection, schedule: Q01DX001 (ip), vehicle: saline with Tween-80 98 % of control | [6] 95 % of control and 98 % of control | [7] 90 % of control | dose: 400.0 mg/kg/injection, schedule: Q01DX001 (ip), vehicle: saline with Tween-80 97 % of control | [8] 101 % of control and 87 % of control | [9] 95 % of control

Cc1ccc(S(=O)(=O)OCCCN(CCCOS(=O)(=O)c2ccc(C)cc2)c2ccccc2)cc1
inactive: dose: 50.0 mg/kg/injection, schedule: Q01DX001 (ip), vehicle: saline 101 % of control | dose: 100.0 mg/kg/injection, schedule: Q01DX001 (ip), vehicle: saline 86 % of control | dose: 200.0 mg/kg/injection, schedule: Q01DX001 (ip), vehicle: saline 95 % of control | dose: 400.0 mg/kg/injection, schedule: Q01DX001 (ip), vehicle: saline 95 % of control

CSC1SCCCS1
inactive: dose: 12.5 mg/kg/injection, schedule: Q04DX002 (ip), vehicle: saline with Tween-80 92 % of control | dose: 25.0 mg/kg/injection, schedule: Q04DX002 (ip), vehicle: saline with Tween-80 98 % of control | [3] 88 % of control

Cc1cc(-c2cc(C)sc2C)c(C)s1
inactive: [4] 87 % of control | [5] 96 % of control | [6] 92 % of control | [7] 94 % of control | [8] 94 % of control | [9] 96 % of control

Cc1ccnc(NC(=O)Nc2ccccc2Cl)c1
inactive: [10] 90 % of control | [11] 93 % of control | [12] 118 % of control

Oc1cccc(/C=N/Nc2nnc(N/N=C/c3cccc(O)c3)c3ccccc23)c1
inactive: dose: 50.0 mg/kg/injection, schedule: Q01DX001 (ip), vehicle: carboxymethylcellulose (CMC) 108 % of control | dose: 100.0 mg/kg/injection, schedule: Q01DX001 (ip), vehicle: carboxymethylcellulose (CMC) 101 % of control | dose: 200.0 mg/kg/injection, schedule: Q01DX001 (ip), vehicle: carboxymethylcellulose (CMC) 98 % of control | dose: 400.0 mg/kg/injection, schedule: Q01DX001 (ip), vehicle: carboxymethylcellulose (CMC) 96 % of control

CC(=O)/C=C/c1c[nH]c(=O)[nH]c1=O
inactive: dose: 100.0 mg/kg/injection, schedule: Q04DX002 (ip), vehicle: saline with Tween-80 104 % of control | dose: 200.0 mg/kg/injection, schedule: Q04DX002 (ip), vehicle: saline with Tween-80 104 % of control | dose: 400.0 mg/kg/injection, schedule: Q04DX002 (ip), vehicle: saline with Tween-80 93 % of control

O=C1Nc2ccc(Br)cc2C1=Nc1cccnc1
inactive: [10] 116 % of control | [11] 95 % of control | [12] 116 % of control

CC(=O)OC1CC2CC(C1C)C2(C)C (stereo unspecified)
inactive: dose: 12.5 mg/kg/injection, schedule: Q01DX009 (ip), vehicle: saline with Tween-80 105 % of control | dose: 25.0 mg/kg/injection, schedule: Q01DX009 (ip), vehicle: saline with Tween-80 91 % of control | dose: 50.0 mg/kg/injection, schedule: Q01DX009 (ip), vehicle: saline with Tween-80 100 % of control
